Measured values reported in EP1956033A1, “Acrylimides with initiator characteristics” (Mondi Release Liner Austria GmbH, priority 2007, dated 2008).

What was measured:
[1] = Test for initiator properties: photopolymerisation of HDDA with the acrylimide added as initiator; conditions: approx. 6 mol-% imido groups in HDDA, 250-450 nm, 900 mW/cm^2; for DBC: double bond conversion from heat of polymerisation; for Rate: mean polymerisation rate of the mixture, means of multiple determinations; for tmax: time to exotherm maximum (maximum polymerisation rate)
Source text: Dabei wurden die üblichen Polymerisationsparameter aufgezeichnet, und die Ergebnisse sind (als Mittelwerte von […]) in […] gibt die "Rate" die […]) des jeweiligen […] an. "DBC" ("double bond conversion"; in %) […] aus der Polymerisationswä[…] an polymerisierten Doppelbindungen, bezogen auf die […], und "tmax" ist die bis zum Erreichen des […]. bis zur […]) erforderliche Zeit (in s). Zusätzlich sind der Gehalt der jeweiligen Verbindung in HDDA in Gew.-% und in Mol-% sowie der Gehalt an Acrylimidogruppen in Mol-% angegeben. Tabelle 1

[2] = Test under self-initiation: irradiation and polymerisation in bulk without additional initiator; design: Rate: unit not given here; conditions: for DBC / Rate / tmax: 100 wt-% compound, in bulk, no additional initiator; for Polymerisationsraten in Substanz gegenüber Verwendung als Initiatoren für HDDA (Faktor): ratio of rate in bulk to rate of the same compound as initiator in HDDA
[3] = Preliminary tests of the inventors on di(meth)acrylated carboxamides (reactivity / initiator properties)
Source text: Da sich in der Literatur keine Hinweise auf derartige Eigenschaften von Di(meth)-acrylamiden fanden, zielten Vorversuche der Erfinder auf Triacylamide ab, in denen zwei der Acylgruppen (Meth)acrylgruppen waren.

For `C=CC(=O)N(CCOCCOCCN(C(=O)C=C)C(=O)C=C)C(=O)C=C` [[20], N,N'-(3,6-Dioxa-1,8-octylen)bisacrylimid], the DBC [1] was 74,8%, the Rate [1] was 21,2 10^3 mol/l.s and the tmax [1] was 171,2 s.
For `C=CC(=O)N(CCN(CC)CC)C(=O)C=C` [[15], N-(2-Diethylaminoethyl)acrylimid], the DBC [1] was 80,2%, the Rate [1] was 27,7 10^3 mol/l.s and the tmax [1] was 160,8 s. The DBC [2] was 90,3%, the Rate [2] was 167,4 and the tmax [2] was 20,9 s.
In the case of Diacrylpropionamid, the “Reaktivität / Initiatoreigenschaften” value [3] is reported as “mäßig reaktive Monomere ohne Initiatoreigenschaften”.
In the case of `C=CC(=O)N(CCCCCCCCCCCCN(C(=O)C=C)C(=O)C=C)C(=O)C=C` [[19], N,N'-(1,12-Dodecylen)bisacrylimid], the DBC [1] is reported as 76,8%, the Rate [1] is reported as 20,9 10^3 mol/l.s and the tmax [1] is reported as 163,9 s.
For `C=CC(=O)N(CCCCCC)C(=O)C=C` [[13], N-Hexylacrylimid], the DBC [1] was 80,2%, the Rate [1] was 28,5 10^3 mol/l.s and the tmax [1] was 159,9 s. For the same molecule, the DBC [2] was 92,7%, the Rate [2] was 170,0 and the tmax [2] was 21,3 s.
With `C=CC(=O)N(CCC(C)(C)CC(C)CN(C(=O)C=C)C(=O)C=C)C(=O)C=C` (stereo not drawn) [[17], N,N'-(2,4,4-Trimethyl-1,6-hexylen)bisacrylimid] the DBC [1] was 75,3%, the Rate [1] was 20,2 10^3 mol/l.s and the tmax [1] was 165,0 s. The DBC [2] was 78,9%, the Rate [2] was 42,6 and the tmax [2] was 19,5 s. For the same molecule, the “Polymerisationsraten in Substanz gegenüber Verwendung als Initiatoren für HDDA (Faktor)” value (“Polymerisationsraten” below) [2] was ~2.
For `C=CC(=O)N(CCC)C(=O)C=C` [[12], N-Propylacrylimid], the DBC [1] was 82,6%, the Rate [1] was 29,8 10^3 mol/l.s and the tmax [1] was 159,6 s. The DBC [2] was 95,2%, the Rate [2] was 196,3 and the tmax [2] was 20,4 s.
With `C=CC(=O)N(CCC[Si](C)(C)O[Si](C)(C)CCCN(C(=O)C=C)C(=O)C=C)C(=O)C=C` [[21], N,N'-(4,6-Disila-5-oxa-4,4,6,6-tetramethyl-1,9-nonylen)bisacrylimid] the DBC [1] was 78,2%, the Rate [1] was 23,4 10^3 mol/l.s and the tmax [1] was 153,0 s. For the same molecule, the DBC [2] was 80,2%, the tmax [2] was 19,2 s and the “Polymerisationsraten” value [2] was ~2.
In the case of `C=CC(=O)N(CC1CCCC(CN(C(=O)C=C)C(=O)C=C)C1)C(=O)C=C` (stereo not drawn) [[18], N,N'-(1,3-Cyclohexylendimethylen)bisacrylimid], the DBC [1] is reported as 73,6%, the Rate [1] is reported as 19,1 10^3 mol/l.s and the tmax [1] is reported as 167,5 s.
In the case of `C=CC(=O)N(CCCCCCN(C(=O)C=C)C(=O)C=C)C(=O)C=C` [[16], N,N'-(1,6-Hexylen)bisacrylimid], the DBC [1] is reported as 75,7%, the Rate [1] is reported as 20,6 10^3 mol/l.s and the tmax [1] is reported as 162,4 s.
With `C=CC(=O)N(CCN(CCN(C(=O)C=C)C(=O)C=C)CCN(C(=O)C=C)C(=O)C=C)C(=O)C=C` [[22], Tris(2-acrylimidoethyl)amin] the DBC [1] was 72,4%, the Rate [1] was 17,8 10^3 mol/l.s and the tmax [1] was 182,2 s. The DBC [2] was 73,5%, the Rate [2] was 38,1 and the tmax [2] was 16,8 s. For the same molecule, the “Polymerisationsraten” value [2] was ~2.
With `C=CC(=O)N(CC(CC)CCCC)C(=O)C=C` (stereo not drawn) [[14], N-2-Ethylhexylacrylimid] the DBC [1] was 80,9%, the Rate [1] was 28,3 10^3 mol/l.s and the tmax [1] was 157,1 s. For the same molecule, the DBC [2] was 89,1%, the Rate [2] was 164,8 and the tmax [2] was 21,8 s.
